Experimental findings from patent US8399465B2, “Compounds with two fused bicyclic heteroaryl moieties as modulators of leukotriene A4 hydrolase” (Janssen Pharmaceutica NV, priority 2009, dated 2013) are described below.

Assay [1] has as its target T1, recombinant human LTA4 hydrolase (rhLTA4H) (Homo sapiens, UniProt P09960).
T1 construct: made in house; host or cells: Spodoptera frugiperda (Sf-9) cells, baculovirus (pFastBac1)
T1 sequence (P09960 1-611): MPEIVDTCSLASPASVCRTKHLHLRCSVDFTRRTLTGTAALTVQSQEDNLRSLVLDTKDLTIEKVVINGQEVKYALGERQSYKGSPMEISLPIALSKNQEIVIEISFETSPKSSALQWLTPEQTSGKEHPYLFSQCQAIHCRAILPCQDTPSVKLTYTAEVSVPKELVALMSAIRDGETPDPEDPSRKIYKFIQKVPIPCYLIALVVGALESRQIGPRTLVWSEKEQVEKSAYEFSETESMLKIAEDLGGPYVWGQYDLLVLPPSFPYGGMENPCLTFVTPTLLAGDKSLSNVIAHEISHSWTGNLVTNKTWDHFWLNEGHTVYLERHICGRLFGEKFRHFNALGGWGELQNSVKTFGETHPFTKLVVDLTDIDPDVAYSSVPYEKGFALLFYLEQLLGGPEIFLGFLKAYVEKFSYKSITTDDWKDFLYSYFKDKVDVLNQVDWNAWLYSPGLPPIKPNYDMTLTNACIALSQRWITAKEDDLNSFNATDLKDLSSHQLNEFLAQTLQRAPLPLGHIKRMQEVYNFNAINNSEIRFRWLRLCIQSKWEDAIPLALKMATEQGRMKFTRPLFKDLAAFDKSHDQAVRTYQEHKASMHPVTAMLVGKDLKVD
Put plainly: Recombinant human LTA4 hydrolase assay for LTA4 hydrolase inhibitor activity. Type of assay: biochemical. The following applies: rhLTA4H, LTB4 by immunoassay; single determination or average of two or more; mark after value = form tested: ′ free base, ″ hydrochloride, ^ formate; read-out: IC50. In a few lines:
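LTB4 formation, measured by enzyme immunoassay, was the read-out. The enzyme, recombinant human LTA4H expressed in Sf-9 insect cells (10 ng per reaction), was exposed to compound for 10 min at room temperature before hydrolysed-ester LTA4 substrate was added for 30 min. Enzyme-free negatives were included.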

For assay [2], the system named is LTB4 production in murine blood (LTA4H). As to the kind of experiment: LTB4 production by calcium ionophore-stimulated murine blood for LTA4H inhibitor activity. It is filed as cell-based, CD-1 mice. As to conditions: Mus musculus. The protocol: Assay 2: LTB4 Production by Calcium Ionophore-Stimulated Murine Blood for LTA4H Inhibitor Activity
CD-1 mice were sacrificed, and blood was collected in heparin-containing syringes by cardiac puncture. […] After the microtiter plate contents were incubated for 15 min at 37° C. in a humidified incubator, calcium ionophore A23187 (Sigma Chemical Co., St. Louis, Mo.) was added to each sample well (final concentration=7 μg/mL). The incubation was continued under the same conditions for an additional 30 min to allow LTB4 formation. The reaction was terminated by centrifugation (833×g, 10 min at 4° C.), and supernatants were analyzed for LTB4 by a commercially available enzyme-linked immunoassay (Cayman Chemical Co.) according to the manufacturer's instructions. Positive controls, under essentially identical conditions but without addition of an inhibitor compound, and negative unstimulated controls, containing all assay components except calcium ionophore, were routinely run in each experiment. […] The values presented here are the result of a single determination or an average of two or more determinations.

Where [3] appears, read: murine blood diluted 1 in 15, A23187 stimulated, single determination or average, mark after value = form tested: ′ free base, ″ hydrochloride, ^ formate, read-out: IC50.

Structures can show the parent of a compound that is named as a salt. Where two headings read alike, the source gives them in different places.

As for `CC(=O)N1C[C@@H]2C[C@H]1CN2Cc1coc2cc(Oc3nc4ccccc4s3)ccc12` [Example 164, (1S,4S)-1-{5-[6-(Benzothiazol-2-yloxy)-benzofuran-3-ylmethyl]-2,5-diaza-bicyclo[2.2.1]hept-2-yl}-ethanone], the IC50 – broadly, the concentration that inhibits the measured activity by half – in assay [1] came to 26 nM; in assay [2] (setting [3]) it was 230 nM.
In the case of `CCn1c(CN2CCCC2)cc2cc(Oc3nc4ccccc4s3)ccc21` [Example 64, 2-(1-Ethyl-2-pyrrolidin-1-ylmethyl-1H-indol-5-yloxy)-benzothiazole], the half-inhibitory concentration (IC50) was found to be 93 nM in assay [1] and 2430 nM in assay [2] (setting [3]).
As to `c1ccc2sc(Oc3ccc4c(CN5CCCC5)c[nH]c4c3)nc2c1` [Example 1, 2-(3-Pyrrolidin-1-ylmethyl-1H-indol-6-yloxy)-benzothiazole], the IC50 in assay [1] turned out to be 12 nM; in assay [2] (setting [3]), 68 nM.
Take `c1ccc2sc(Oc3cnc4c(CN5CCCCC5)c[nH]c4c3)nc2c1` [Example 31, 2-(3-Piperidin-1-ylmethyl-1H-pyrrolo[3,2-b]pyridin-6-yloxy)-benzothiazole]: the results for the IC50 in assay [1] and in assay [2] (setting [3]) were 55 nM and 188 nM, respectively.
The matching figures for `CC(=O)N[C@H]1C[C@H]2CC[C@@H](C1)N2CCc1coc2cc(Oc3nc4ccccc4s3)ccc12` [Example 129, meso-endo-N-(8-{2-[6-(Benzothiazol-2-yloxy)-benzofuran-3-yl]-ethyl}-8-aza-bicyclo[3.2.1]oct-3-yl)-acetamide]: 13 nM and 180 nM.
Consider `c1ccc2sc(Oc3ccc4c(CN5C[C@@H]6C[C@H]5CN6)c[nH]c4c3)nc2c1` [Example 52, (1S,4S)-2-[3-(2,5-Diaza-bicyclo[2.2.1]hept-2-ylmethyl)-1H-indol-6-yloxy]-benzothiazole 2HCl], for which the IC50 in assay [1] worked out at 23 nM; in assay [2] (setting [3]), 411 nM.
For `O=C1Cc2ccccc2N1Cc1coc2cc(Oc3nc4ncccc4s3)ccc12` [Example 399, 1-[6-(Thiazolo[4,5-b]pyridin-2-yloxy)-benzofuran-3-ylmethyl]-1,3-dihydro-indol-2-one], the IC50 worked out at 13 nM in assay [1] and 300 nM in assay [2] (setting [3]).
With `c1ccc2sc(Oc3ccc4c(CN5CCOCC5)c[nH]c4c3)nc2c1` [Example 3, 2-(3-Morpholin-4-ylmethyl-1H-indol-6-yloxy)-benzothiazole], the figures for the half-inhibitory concentration (IC50) in assay [1] and in assay [2] (setting [3]) were 16 nM and 303 nM, respectively.
Regarding `c1cnc2nc(Oc3ccc4c(CN5CCC(N6CCCC6)CC5)coc4c3)sc2c1` [Example 283, 2-[3-(4-Pyrrolidin-1-yl-piperidin-1-ylmethyl)-benzofuran-6-yloxy]-thiazolo[4,5-b]pyridine formate], the IC50 worked out at 35 nM in assay [1] and 130 nM in assay [2] (setting [3]).
Regarding `CC(=O)N1CC2CN(Cc3cc4ccc(Oc5nc6ncccc6s5)cc4o3)CC2C1` (stereo not shown) [Example 195, 1-{5-[6-(Thiazolo[4,5-b]pyridin-2-yloxy)-benzofuran-2-ylmethyl]-hexahydro-pyrrolo[3,4-c]pyrrol-2-yl}-ethanone], the IC50 amounted to 80 nM in assay [1] and 151 nM in assay [2] (setting [3]).
The matching figures for `CC(=O)N[C@H]1C[C@H]2CC[C@@H](C1)N2Cc1cc2ccc(Oc3nc4ccccc4s3)cc2[nH]1` [Example 70, meso-endo-N-{8-[6-(Benzothiazol-2-yloxy)-1H-indol-2-ylmethyl]-8-aza-bicyclo[3.2.1]oct-3-yl}-acetamide]: 1 nM and 76 nM.
In the same order, the values of `O=C(c1cnccn1)N1C[C@@H]2C[C@H]1CN2Cc1coc2cc(Oc3nc4ncccc4s3)ccc12` [Example 356, (1S,4S)-Pyrazin-2-yl-{5-[6-(thiazolo[4,5-b]pyridin-2-yloxy)-benzofuran-3-ylmethyl]-2,5-diaza-bicyclo[2.2.1]hept-2-yl}-methanone] are 18 nM and 260 nM.
For the molecule `c1cnc2nc(Oc3ccc4cc(CN5CCCCC5)oc4c3)sc2c1` [Example 192, 2-(2-Piperidin-1-ylmethyl-benzofuran-6-yloxy)-thiazolo[4,5-b]pyridine formate], the values for the IC50 in assay [1] and in assay [2] were 43 nM and 120 nM, respectively.
On to `CC(=O)N[C@@H]1CCN(Cc2coc3cc(Oc4nc5ncccc5s4)ccc23)C1` [Example 324, (R)—N-{1-[6-(Thiazolo[4,5-b]pyridin-2-yloxy)-benzofuran-3-ylmethyl]-pyrrolidin-3-yl}-acetamide], for which the IC50 in assay [1] stood at 8 nM; in assay [2] (setting [3]), 16 nM.
As to `O=C(O)C1CCN(Cc2c[nH]c3cc(Oc4nc5ccccc5s4)ccc23)CC1` [Example 45, 1-[6-(Benzothiazol-2-yloxy)-1H-indol-3-ylmethyl]-piperidine-4-carboxylic acid], the IC50 amounted to 6 nM in assay [1] and 1340 nM in assay [2] (setting [3]).
Turning to `O=C1CCCN1C1CCN(Cc2coc3cc(Oc4nc5ccccc5s4)ccc23)CC1` [Example 179, 1-{1-[6-(Benzothiazol-2-yloxy)-benzofuran-3-ylmethyl]-piperidin-4-yl}-pyrrolidin-2-one], the IC50 in assay [1] was 11 nM; in assay [2] (setting [3]), 75 nM.
As for `c1cnc2nc(Oc3ccc4cc(CN5CCCCC5)[nH]c4c3)sc2c1` [Example 71, 2-(2-Piperidin-1-ylmethyl-1H-indol-6-yloxy)-thiazolo[4,5-b]pyridine], the IC50 was found to be 17 nM in assay [1] and 87 nM in assay [2] (setting [3]).
On to `c1cnc2nc(Oc3ccc4c(CN5CCc6sc7ccccc7c6C5)c[nH]c4c3)sc2c1` [Example 34, 2-[6-(Thiazolo[4,5-b]pyridin-2-yloxy)-1H-indol-3-ylmethyl]-1,2,3,4-tetrahydro-benzo[4,5]thieno[3,2-c]pyridine formate], for which the IC50 in assay [1] came out at 20 nM; in assay [2] (setting [3]) it was 401 nM.
For `CNC(=O)C1CCN(Cc2c[nH]c3cc(Oc4nc5ccccc5s4)ccc23)CC1` [Example 22, 1-[6-(Benzothiazol-2-yloxy)-1H-indol-3-ylmethyl]-piperidine-4-carboxylic acid methylamide], the half-maximal inhibitory concentration (IC50) in assay [1] was determined as 2 nM; in assay [2] (setting [3]), 79 nM.
Consider `CC(C)N(C)C(=O)c1coc2cc(Oc3nc4ncccc4s3)ccc12` [Example 373, 6-(Thiazolo[4,5-b]pyridin-2-yloxy)-benzofuran-3-carboxylic acid isopropyl-methyl-amide], for which the IC50 turned out to be 34 nM in assay [1] and 100 nM in assay [2] (setting [3]).
Regarding `c1cnc2nc(Oc3ccc4c(CN5CCC6CCCCC6C5)coc4c3)sc2c1` (stereo not shown) [Example 266, 2-[6-(Thiazolo[4,5-b]pyridin-2-yloxy)-benzofuran-3-ylmethyl]-decahydro-isoquinoline formate], the values for the IC50 in assay [1] and in assay [2] (setting [3]) were 2 nM and 100 nM, respectively.
In the same order, the values of `CC(=O)NC1CCN(Cc2coc3cc(Oc4nc5nccc(C)c5s4)ccc23)CC1` [Example 252, N-{1-[6-(7-Methyl-thiazolo[4,5-b]pyridin-2-yloxy)-benzofuran-3-ylmethyl]-piperidin-4-yl}-acetamide formate] are 24 nM and 48 nM.
In the case of `O=C(c1ccno1)N1C[C@@H]2C[C@H]1CN2Cc1coc2cc(Oc3nc4ncccc4s3)ccc12` [Example 358, (1S,4S)-Isoxazol-5-yl-{5-[6-(thiazolo[4,5-b]pyridin-2-yloxy)-benzofuran-3-ylmethyl]-2,5-diaza-bicyclo[2.2.1]hept-2-yl}-methanone], the IC50 came to 9 nM in assay [1] and 14 nM in assay [2] (setting [3]).
